Laboratory results: ChEMBL document CHEMBL1156270, “Small molecule JNK (c-Jun N-terminal kinase) inhibitors” (J Med Chem, 2010)
One block for each compound: values may come before it.

Tests used:
[1] = Oral bioavailability in rat; type: ADME, organism-based; conditions: in vivo
Mus musculus [2] = species on record: Mus musculus; test: Inhibition of LPS-induced TNFalpha production in mouse; type: functional
[3] = target: T1, Mitogen-activated protein kinase 8 (Homo sapiens, UniProt P45983); test: Binding affinity to JNK1
T1 sequence (P45983 whole entry): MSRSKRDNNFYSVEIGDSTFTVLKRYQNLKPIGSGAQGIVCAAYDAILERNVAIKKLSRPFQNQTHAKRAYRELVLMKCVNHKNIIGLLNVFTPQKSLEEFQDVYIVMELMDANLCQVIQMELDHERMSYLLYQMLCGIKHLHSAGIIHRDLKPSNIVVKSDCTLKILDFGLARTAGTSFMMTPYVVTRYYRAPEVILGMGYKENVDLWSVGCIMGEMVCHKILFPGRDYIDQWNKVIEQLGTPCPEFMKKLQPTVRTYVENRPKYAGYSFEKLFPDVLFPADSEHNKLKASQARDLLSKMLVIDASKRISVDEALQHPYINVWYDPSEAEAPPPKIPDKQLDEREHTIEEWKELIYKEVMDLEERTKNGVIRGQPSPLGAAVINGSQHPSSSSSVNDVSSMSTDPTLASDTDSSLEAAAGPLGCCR

[4] = target: T1, Mitogen-activated protein kinase 8; test: Inhibition of JNK1
Mus musculus [5] = test: Reduction of fat mass in diet-induced obese mouse at 30 mg/kg, po for 24 days relative to control; type: functional; design: scale not given: the % may be the effect or the level left
[6] = target: Mitogen-activated protein kinase 9 (Homo sapiens, UniProt P45984); test: Inhibition of JNK2
Mitogen-activated protein kinase 9, sequence (P45984 whole entry): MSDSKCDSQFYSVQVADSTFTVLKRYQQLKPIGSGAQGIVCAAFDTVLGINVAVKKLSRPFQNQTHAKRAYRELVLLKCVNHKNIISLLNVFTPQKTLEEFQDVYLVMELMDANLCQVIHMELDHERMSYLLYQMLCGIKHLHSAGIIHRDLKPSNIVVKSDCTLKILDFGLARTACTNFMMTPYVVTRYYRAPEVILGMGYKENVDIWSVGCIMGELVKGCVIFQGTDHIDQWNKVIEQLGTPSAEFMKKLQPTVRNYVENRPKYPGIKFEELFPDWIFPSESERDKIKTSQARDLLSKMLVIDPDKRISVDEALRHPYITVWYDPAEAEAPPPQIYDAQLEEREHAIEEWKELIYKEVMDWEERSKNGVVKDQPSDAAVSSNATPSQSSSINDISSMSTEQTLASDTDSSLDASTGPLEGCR

Mus musculus [7] = test: Reduction of body weight in diet-induced obese mouse at 30 mg/kg, po for 24 days; type: functional; design: scale not given: the % may be the effect or the level left
[8] = target: Mitogen-activated protein kinase 10 (Homo sapiens, UniProt P53779); test: Inhibition of JNK3
Mitogen-activated protein kinase 10, sequence (P53779 whole entry): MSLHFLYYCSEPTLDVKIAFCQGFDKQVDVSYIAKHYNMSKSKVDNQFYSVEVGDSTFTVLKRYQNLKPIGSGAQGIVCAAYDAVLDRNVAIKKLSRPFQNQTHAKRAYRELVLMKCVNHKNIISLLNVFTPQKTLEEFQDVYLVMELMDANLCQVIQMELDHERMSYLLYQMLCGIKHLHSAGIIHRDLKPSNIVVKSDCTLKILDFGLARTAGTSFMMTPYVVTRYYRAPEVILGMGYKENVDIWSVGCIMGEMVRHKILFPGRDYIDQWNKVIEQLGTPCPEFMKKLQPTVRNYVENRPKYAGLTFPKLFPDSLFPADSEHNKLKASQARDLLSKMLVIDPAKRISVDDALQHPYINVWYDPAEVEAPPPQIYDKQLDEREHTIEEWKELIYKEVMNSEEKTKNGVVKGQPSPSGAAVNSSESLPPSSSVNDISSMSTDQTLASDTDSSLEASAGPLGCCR

[9] = target: Mitogen-activated protein kinase 14 (Homo sapiens, UniProt Q16539); test: Inhibition of p38alpha
Mitogen-activated protein kinase 14, sequence (Q16539 whole entry): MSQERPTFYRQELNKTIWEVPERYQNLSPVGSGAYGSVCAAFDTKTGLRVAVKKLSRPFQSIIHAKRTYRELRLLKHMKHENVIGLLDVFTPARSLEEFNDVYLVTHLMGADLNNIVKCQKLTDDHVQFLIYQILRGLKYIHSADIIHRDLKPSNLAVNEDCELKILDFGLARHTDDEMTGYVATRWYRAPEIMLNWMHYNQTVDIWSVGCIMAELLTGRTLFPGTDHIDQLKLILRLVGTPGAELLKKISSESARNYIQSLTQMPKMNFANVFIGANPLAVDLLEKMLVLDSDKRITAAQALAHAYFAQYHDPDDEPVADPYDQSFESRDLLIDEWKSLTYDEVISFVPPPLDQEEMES

SCG = test: Protection against NGF deprivation-induced neuronal apoptosis in rat SCG cells after 24 hrs by MTT assay; type: functional, cell-based

bioavailability [1]: 38%
Compound: N#C/C(=C1/Nc2ccccc2S1)c1ccnc(NCCc2cccnc2)n1
ED50 (Mus musculus [2]): 3 mg/kg

Kd [3]: 0.42 µM
Compound: H-RPKRPTTLNLF-OH

IC50 [9]: 0.046 µM
Compound: O=C(NCCCn1cnc(-c2ccc(F)cc2)c1-c1ccncc1)c1ccccc1

Ki [4]: 0.003 µM | Ki [6]: 0.006 µM | Ki [8]: 0.005 µM
Compound: CN(C)c1c(-c2ccnc(N[C@H]3CC[C@H](O)CC3)n2)cnn1Cc1ccccc1

The next lines start with the compound.

Compound: c1ccc(Nc2ccc3c(-c4ccccc4)n[nH]c3c2)cc1
IC50 [4]: > 10 µM

Compound: O[C@H]1CC[C@H](Nc2nccc(-c3c[nH]nc3C3CCCOC3)n2)CC1 (some centres undefined)
Activity (Mus musculus [5]): 30.1% | Ki [4]: 0.009 µM | Ki [6]: 0.017 µM | Activity (Mus musculus [7]): 13% | Ki [8]: 0.016 µM

Compound: CCCNc1nccc(-c2c(-c3ccc(F)cc3)nc3n2[C@H](Cc2ccc(OC)cc2)CC3)n1
IC50 [9]: 0.054 µM | IC50 [8]: 0.0109 µM

Compound: CN(C)CCCC(=O)Nc1cc(C(=O)O)cc(-c2n[nH]c3cc(Nc4ccccc4Cl)ccc23)c1
IC50 [4]: 0.101 µM | IC50 [9]: 0.903 µM | IC50 [8]: 0.003 µM

Compound: O=C(NCc1ccc(S(=O)(=O)N2CCC(n3nnc4ccccc43)CC2)s1)c1ccc(Cl)cc1
IC50 (SCG): 1.7 µM
